In patent US5817297A, “Composition for enhancing oral hygiene” (LG Chemical Ltd., priority 1996, dated 1998):

Legend:
plaque formation [1] = test: Plaque index of test subjects using dentifrice of Table 1, Experiment 3; format: in vivo, human; details: in words; for effect on the plaque formation: dentifrice
Description: (§1) The effect of inhibiting plaque formation and gingivitis was tested using the dentifrice compositions of Examples 1 to 6 and Comparative Examples 1 to 4 described in Table 1 according to the following method. The results are described in the following Tables 7 and 8.
(§2) 1 The test subjects were selected and were given the explanation of oral medical examination.
(§3) 2 The test subjects were divided such that the group for each composition of examples and comparative examples includes 10 subjects, and then had the education of correct brushing method. The test subject were subjected to the oral medical examination to measure the plaque index (Quigley-Hein Index modified by Turesky) and the gingivitis index (Gingival Bleeding Index, Loe-Silness Index).
(§4) 3 Before the test, all the test subjects were subjected to teeth scaling.
(§5) 4 The placebo dentifrice(calcium monohydrogenphosphate 40%, glycerin 25%, sodium laurylsulfate 1.5%, sodium saccharin 0.1%, paraoxybenzoic acid ester 0.1%, sodium carboxymethylcellulose 1%, purified water added to 100%) was used for 2 weeks and then the oral medical exmamination was conducted again to measure the plaque index and the gingivitis index as the initial value.
(§6) 5 The test subjects were allowed to brush using the dentifrice of examples and comparative examples for 4 weeks, three times for one day, according to the same method as usual. The oral medical examination was conducted at the second and fourth weeks to determine the plaque index score and the gingivitis index score.
(§7) 6 The score obtained after 4 weeks was compared with the initial value and examined for the statistic significance using T-test.

gingivitis [2] = test: Gingivitis index of test subjects using oral rinse of Table 2, Experiment 4; format: in vivo, human; details: in words
From the text: as §2, §3, §4, §5, §6, §7
The effect of inhibiting plaque formation and gingivitis was tested using the oral rinse compositions of Examples 7 to 12 and Comparative Examples 5 to 8 described in Table 2 according to the same method as Experiment 3. The results are described in the following Tables 9 and 10.

[3] = system: Streptococcus mutans 10449, type C; test: Inhibition of plaque formation on glass bar by Streptococcus mutans, Experiment 2; format: cell-based; details: for plaque formation(%): 1440 min
Description: The inhibition effect of ursodesoxycholic acid, chenodesoxycholic acid and triclosan as the effective components of the composition for enhancing oral hygiene according to the present invention on plaque formation was determined and compared according to the following method.
Ursodesoxycholic acid, Chenodesoxycholic aicd, Triclosan.
1 Test strain, Streptococcus mutans 10449, type C was cultured in brain-heart infusion agar medium and then the cultured strain was inoculated on THB(Todd Hewitt Broth) and cultured at 37° C. for 15 hours.
2 The small glass bar was sterilized and then weighed.
3 This glass bar was introduced into the test tube in which the medium containing sucrose is included. The test substance was added at a given concentration to the test tube and then the test microorganism strain was added thereto. The test tube was cultured at 37° C. for 24 hours.
4 After incubation, the glass bar was carefully removed from the test tube and dried at 37° C. for one day. The final weight of the glass bar was measured. The control group was treated in the same manner as the test group except that the test substance is not added.
5 From the measured result, the plaque formation percentage was calculated according to the following equation: [formula]

collagenase [4] = test: Inhibition of collagenase activity (azocol digestion, absorbance at 540 nm), Experiment 1; format: biochemical; details: Table 4; final concentration 0.02%, 10% ethanol solution
Description: The inhibition effects on collagenase activity of various substances including ursodesoxycholic acid and chenodesoxycholic acid as the effective components of the composition for enhancing oral hygiene according to the present invention were determined and compared according to the following method.
ursodesoxycholic aicd, chenodesoxycholic acid, fel tauri salt, bamboo salt, common salt, Machili cortex, Phellodendri cortex, Platycodi radix, Schizonepetae herba, Glycyrrhizae radix, Angelicae gigantis radix, Chamomillae flos, Myrrha, Theae folium, Taraxaci radix cum Herba, Lonicerae flos, Ciniicifugae rhizoma.
1 100 μl of 2% azocol solution was added to the test tube and then 190 μl of buffer solution (0.05M Tris-HCl, 1 mM CaCl2, pH 7.8) was added thereto.
2 To the resulting solution as prepared above was added to each test substance in the following concentration:
Ursodesoxycholic acid (10% ethanol solution) or chenodesoxycholic acid (10% ethanol solution) was added to the final concentration of 0.02%;
Fel tauri salt, bamboo salt or common salt was dissolved in the buffer solution as mentioned above and then added to the final concentration of 2.0%;
Machili cortex, Phellodendri cortex, Platycodi radix, Schizonepetae herba, Glycyrrhizae radix, Angelicae gigantis radix, Chamomillae flos, Myrrha, Theae folium, Taraxaci radix cum Herba, Lonicerae flos or Cimicifugae rhizoma was added in the form of 30% ethanol extract to the final concentration of 0.1%.
3 100 μl of collagenase having 100 ppm concentration was added and then the mixture was maintained in a 37° C. incubator for 18 hours. (Separately, the standard activity curve was prepared from 10, 100, 200 μl of collagenase.)
4 The test tubes were centrifuged for 5 minutes.
5 The supernatant was separated from the test tube and then added to the cell. The absorbance at 540 nm was measured by spectrophotometer and then the activity of the test group was determined from the standard activity curve.

gingivitis [5] = test: Gingivitis index of test subjects using dentifrice of Table 1, Experiment 3; format: in vivo, human; details: for effect of alleviating gingivitis / effect on gingivitis in combination with bamboo salt, the extract of medicinal herbs, etc.: dentifrice, in words
Description: as §1, §2, §3, §4, §5, §6, §7

collagenase [6] = test: Inhibition of collagenase activity (azocol digestion, absorbance at 540 nm), Experiment 1; format: biochemical; details: for Absorbance (540 nm) / Enzyme activity inhibition (%): Table 5; for activity for inactivating collagenase / inhibition effect at the concentration in excess of 0.6% / inhibition effect on collagenase activity in comparison with extracts of other medicinal herbs: in words
plaque formation [7] = test: Plaque index of test subjects using oral rinse of Table 2, Experiment 4; format: in vivo, human; details: in words
From the text: as §2, §3, §4, §5, §6
6 The score obtained after 4 weeks was compared with the initial value and examined for the statistic significance using T-test. […]

C[C@H](CCC(=O)O)[C@H]1CC[C@H]2[C@@H]3[C@H](O)C[C@@H]4C[C@H](O)CC[C@]4(C)[C@H]3CC[C@]12C [Chenodesoxycholic acid, chenodesoxycholic acid]
effect on the plaque formation (plaque formation [1]): no significant effect on the plaque formation
plaque effect in combination with the extract of other medicinal herbs (plaque formation [1]): do not show any synergistic and antagonistic effect
alleviating effect for gingivitis (gingivitis [2]): good alleviating effect for gingivitis
effect on gingivitis in combination with bamboo salt, the extract of medicinal herbs, etc. (gingivitis [2]): synergistic allevia- ting effect on gingivitis
pH ([3]; 0.100 (unit not given)): 4.2
plaque formation(%) ([3]; 0.100 (unit not given)): 100.0%
Absorbance (540 nm) (collagenase [4]): 0.260
Enzyme activity inhibition (%) (collagenase [4]): 39.23%
effect of alleviating gingivitis (gingivitis [5]): good effect of alleviating gingivitis
effect on gingivitis in combination with bamboo salt, the extract of medicinal herbs, etc. (gingivitis [5]): synergistic alleviating effect on gingivitis
concentration at which inhibition effect on collagenase begins (collagenase [6]): 0.01%
concentration at which inhibition effect on collagenase reaches the maximum level (collagenase [6]): 0.6%
Absorbance (540 nm) (collagenase [6]; content 0.001%): 0.324
Enzyme activity inhibition (%) (collagenase [6]; content 0.001%): -1.20%
Absorbance (540 nm) (collagenase [6]; content 0.010%): 0.315
Enzyme activity inhibition (%) (collagenase [6]; content 0.010%): 6.55%
Absorbance (540 nm) (collagenase [6]; content 0.020%): 0.260
Enzyme activity inhibition (%) (collagenase [6]; content 0.020%): 39.23%
Absorbance (540 nm) (collagenase [6]; content 0.050%): 0.230
Enzyme activity inhibition (%) (collagenase [6]; content 0.050%): 52.15%
Absorbance (540 nm) (collagenase [6]; content 0.100%): 0.180
Enzyme activity inhibition (%) (collagenase [6]; content 0.100%): 67.87%
Absorbance (540 nm) (collagenase [6]; content 0.150%): 0.052
Enzyme activity inhibition (%) (collagenase [6]; content 0.150%): 88.41%
Absorbance (540 nm) (collagenase [6]; content 0.200%): 0.007
Enzyme activity inhibition (%) (collagenase [6]; content 0.200%): 91.91%
Absorbance (540 nm) (collagenase [6]; content 0.600%): 0.002
Enzyme activity inhibition (%) (collagenase [6]; content 0.600%): 92.22%
Absorbance (540 nm) (collagenase [6]; content 1.000%): 0.002
Enzyme activity inhibition (%) (collagenase [6]; content 1.000%): 92.22%
Absorbance (540 nm) (collagenase [6]; content 2.000%): 0.002
Enzyme activity inhibition (%) (collagenase [6]; content 2.000%): 92.22%
activity for inactivating collagenase (collagenase [6]): good activity for inactivating collagenase
inhibition effect at the concentration in excess of 0.6% (collagenase [6]): not significantly increased
inhibition effect on collagenase activity in comparison with extracts of other medicinal herbs (collagenase [6]): superior inhibition effect on collagenase activity
effect on the plaque formation (plaque formation [7]): no significant effect on the plaque formation

Oc1cc(Cl)ccc1Oc1ccc(Cl)cc1Cl [Triclosan, triclosan]
pH ([3]; triclosan 0.0010): 4.3
plaque formation(%) ([3]; triclosan 0.0010): 100.0%
pH ([3]; triclosan 0.0050): 4.3
plaque formation(%) ([3]; triclosan 0.0050): 100.0%
pH ([3]; triclosan 0.0100): 4.3
plaque formation(%) ([3]; triclosan 0.0100): 100.0%
pH ([3]; triclosan 0.0300): 4.5
plaque formation(%) ([3]; triclosan 0.0300): 50.0%
pH ([3]; triclosan 0.0500): 7.5
plaque formation(%) ([3]; triclosan 0.0500): 0.0%

C[C@H](CCC(=O)O)[C@H]1CC[C@H]2[C@@H]3[C@@H](O)C[C@@H]4C[C@H](O)CC[C@]4(C)[C@H]3CC[C@]12C [Ursodesoxycholic acid, ursodesoxycholic acid]
effect on the plaque formation (plaque formation [1]): no significant effect on the plaque formation
plaque effect in combination with the extract of other medicinal herbs (plaque formation [1]): do not show any synergistic and antagonistic effect
alleviating effect for gingivitis (gingivitis [2]): good alleviating effect for gingivitis
effect on gingivitis in combination with bamboo salt, the extract of medicinal herbs, etc. (gingivitis [2]): synergistic allevia- ting effect on gingivitis
pH ([3]; 0.100 (unit not given)): 4.2
plaque formation(%) ([3]; 0.100 (unit not given)): 100.0%
Absorbance (540 nm) (collagenase [4]): 0.243
Enzyme activity inhibition (%) (collagenase [4]): 45.64%
effect of alleviating gingivitis at the concentration in excess of 1.0 wt % (gingivitis [5]; Comparative Example 2, in words): does not show any increase of the effect in proportion to the increase of the concentration
effect of alleviating gingivitis (gingivitis [5]): good effect of alleviating gingivitis
effect on gingivitis in combination with bamboo salt, the extract of medicinal herbs, etc. (gingivitis [5]): synergistic alleviating effect on gingivitis
concentration at which the effect of alleviating gingivitis begins (gingivitis [5]; human, in vivo): 0.01 wt %
concentration with a significant effect in comparison with Comparative Example 4 (gingivitis [5]; human, in vivo): ≥ 0.02 wt %
concentration at which inhibition effect on collagenase begins (collagenase [6]): 0.01%
concentration at which inhibition effect on collagenase reaches the maximum level (collagenase [6]): 0.6%
Absorbance (540 nm) (collagenase [6]; content 0.001%): 0.326
Enzyme activity inhibition (%) (collagenase [6]; content 0.001%): -2.82%
Absorbance (540 nm) (collagenase [6]; content 0.010%): 0.305
Enzyme activity inhibition (%) (collagenase [6]; content 0.010%): 13.02%
Absorbance (540 nm) (collagenase [6]; content 0.020%): 0.243
Enzyme activity inhibition (%) (collagenase [6]; content 0.020%): 45.64%
Absorbance (540 nm) (collagenase [6]; content 0.050%): 0.215
Enzyme activity inhibition (%) (collagenase [6]; content 0.050%): 57.54%
Absorbance (540 nm) (collagenase [6]; content 0.100%): 0.166
Enzyme activity inhibition (%) (collagenase [6]; content 0.100%): 71.26%
Absorbance (540 nm) (collagenase [6]; content 0.150%): 0.050
Enzyme activity inhibition (%) (collagenase [6]; content 0.150%): 88.60%
Absorbance (540 nm) (collagenase [6]; content 0.200%): 0.005
Enzyme activity inhibition (%) (collagenase [6]; content 0.200%): 92.03%
Absorbance (540 nm) (collagenase [6]; content 0.600%): 0.002
Enzyme activity inhibition (%) (collagenase [6]; content 0.600%): 92.22%
Absorbance (540 nm) (collagenase [6]; content 1.000%): 0.000
Enzyme activity inhibition (%) (collagenase [6]; content 1.000%): 92.34%
Absorbance (540 nm) (collagenase [6]; content 2.000%): 0.000
Enzyme activity inhibition (%) (collagenase [6]; content 2.000%): 92.34%
activity for inactivating collagenase (collagenase [6]): good activity for inactivating collagenase
inhibition effect at the concentration in excess of 0.6% (collagenase [6]): not significantly increased
inhibition effect on collagenase activity in comparison with extracts of other medicinal herbs (collagenase [6]): superior inhibition effect on collagenase activity
effect on the plaque formation (plaque formation [7]): no significant effect on the plaque formation
